Measurements from US10865196B2, “Compounds for treatment of cancer” (University of Tennessee Research Foundation, priority 2008, dated 2020).
Where two headings read alike, the source gives them in different places.

Key:
OVCAR-8 = test: SRB antiproliferation assay, OVCAR-8 ovarian cancer; conditions: Homo sapiens, OVCAR-8, read-out: IC50 OVCAR-8
NCI/ADR-RES = test: SRB antiproliferation assay, P-gp over-expressing NCI/ADR-RES
[1] = system: prostate cancer cells (LNCaP, PC-3, DU-145, PPC-1); test: SRB assay, prostate cancer cells; assay type: cell-based, human; conditions: for IC50: Homo sapiens, range over prostate cancer cell lines, read-out: IC50 values against prostate cancer cells
B16-F1 = test: SRB antiproliferation assay, B16-F1 melanoma; assay type: cell-based, mouse; conditions: Mus musculus, read-out: IC50 B16-F1 (converted)
From the text: (§1) For melanoma assays, one human melanoma cell line (A375) and one mouse melanoma cell line (B16-F1) were used. […] Fibroblast cells were used as a control to determine the selectivity of these compounds against melanoma. Human dermal fibroblast cells were purchased from Cascade Biologics, Inc., Portland, Oreg., USA.

A375 = test: SRB antiproliferation assay, A375 melanoma; assay type: cell-based, human; conditions: read-out: IC50 A375 (converted)
From the text: as §1

melanoma cells = test: SRB assay, melanoma cells; assay type: cell-based; conditions: range over melanoma cell lines; read-out: IC50 values against melanoma cells
Procedure: (§2) For melanoma assays, one human melanoma cell line (A375) and one mouse melanoma cell line (B16-F1) were used. […] Fibroblast cells were used as a control to determine the selectivity of these compounds against melanoma. Human dermal fibroblast cells were purchased from Cascade Biologics, Inc., Portland, Oreg., USA. […] Cells were exposed to a wide range of concentrations for 48 h in round-bottomed 96-well plates. […] After cells were air-dried overnight and stained with SRB solution, total proteins were measured at 560 nm with a plate reader.

PC-3 = test: SRB antiproliferation assay, PC-3 prostate cancer; conditions: read-out: IC50 PC-3, SRB
LNCaP = test: SRB antiproliferation assay, LNCaP prostate cancer; conditions: read-out: IC50 LNCaP, SRB
PPC-1 = test: SRB antiproliferation assay, PPC-1 prostate cancer; conditions: read-out: IC50 PPC-1, SRB
DU 145 = test: SRB antiproliferation assay, DU 145 prostate cancer; conditions: read-out: IC50 DU 145, SRB
[2] = system: melanoma (A375, B16-F1) and prostate cancer cells (DU145, PC-3, LNCaP, PPC-1); test: SRB assay, range over melanoma and prostate cancer cell lines; assay type: cell-based; conditions: for IC50: range over the examined cell lines, read-out: IC50 over melanoma and prostate cancer cell lines
Procedure: as §2

WM164 = test: SRB antiproliferation assay, WM-164 melanoma; assay type: cell-based; conditions: Homo sapiens
[3] = system: Human dermal fibroblast cells; test: SRB assay, fibroblast control cells; assay type: cell-based
Procedure: as §2

Row | Structure (SMILES) | IC50 (B16-F1; B16-F1, SRB) | IC50 (A375; Homo sapiens, A-375, SRB) | melting point | IC50 (PC-3) | IC50 (LNCaP) | IC50 (PPC-1) | IC50 (DU 145) | other results
1 | COc1cc(C(=O)c2cccc(-c3ccccc3)n2)cc(OC)c1OC | – | – | – | – | – | – | – | IC50 (OVCAR-8): 33 ± 3 nM; IC50 (NCI/ADR-RES; Homo sapiens, NCI/ADR-RES, read-out: IC50 NCI/ADR-RES): 13 ± 0.8 nM
2 | COc1cc(C(=NC#N)c2csc(-c3ccccc3)n2)cc(OC)c1OC | – | – | – | – | – | – | – | Resistance factor (NCI/ADR-RES; NCI/ADR-RES vs OVCAR-8): 0.4
3 | COc1cc(C(=O)c2csc(-c3ccc(CN)cc3)n2)cc(OC)c1OC | – | – | – | – | – | – | – | IC50 (OVCAR-8): 26 ± 2 nM
4 | COc1cc(C(=O)c2csc(Nc3ccccc3)n2)cc(OC)c1OC [5-a] | – | – | – | – | – | – | – | activity in prostate cancer cell lines, in words [1]: potent activity
5 | COc1cc(C(=O)c2csc(Nc3ccc(F)cc3)n2)cc(OC)c1OC [5-c] | – | – | – | – | – | – | – | activity in prostate cancer cell lines, in words [1]: potent activity
6 | COc1cc(C(=O)c2csc(Nc3ccc(Cl)cc3)n2)cc(OC)c1OC [5-d] | – | – | – | – | – | – | – | activity in prostate cancer cell lines, in words [1]: potent activity
7 | COc1cc(C(=O)c2csc(-c3ccccc3F)n2)cc(OC)c1OC [8l, [2-(2-Fluorophenyl)-thiazol-4-yl]-(3,4,5-trimethoxyphenyl)-methanone] | 27 nM | 30 nM | 90 to 102 °C | 82 nM | 53 nM | 52 nM | 114 nM | IC50 (melanoma cells): 27 to 30 nM; IC50 [1]: 52 to 114 nM
8 | COc1cc(C(=O)c2c[nH]c(-c3cn(S(=O)(=O)c4ccccc4)c4ccccc34)n2)cc(OC)c1OC [17yab, (2-(1-(Phenylsulfonyl)-1H-indol-3-yl)-1H-imidazol-4-yl)(3,4,5-trimethoxyphenyl)methanone] | 539 nM | 481 nM | – | 148 nM | 234 nM | 209 nM | 592 nM | IC50 (WM164): 468 nM
9 | CC(=O)Nc1ccc(C2N[C@H](C(=O)Nc3ccc4c(c3)Cc3ccccc3-4)CS2)cc1 (stereo partly drawn) [ATCAA-2, reference compound] | – | – | – | – | – | – | – | IC50 (A375; SRB, 48 h): 2100 ± 100 nM; IC50 [2]: 1600 to 3900 nM; IC50 (PC-3; 96 h): 2100 ± 100 nM; IC50 (LNCaP; 96 h): 3500 ± 700 nM; IC50 (PPC-1; 96 h): 1600 ± 100 nM; IC50 (DU 145; 96 h): 1900 ± 300 nM
10 | COc1cc(C(=O)c2cscn2)cc(OC)c1OC [compound 10, Thiazol-4-yl-(3,4,5-trimethoxy-phenyl)-methanone] | > 100000 nM | > 100000 nM | 106 to 108 °C | > 20000 nM | > 20000 nM | > 20000 nM | > 20000 nM | antiproliferative activity against melanoma and prostate cancer cell lines, in words ([2]; compared with 8f or parent compounds): total loss of activity
11 | COc1cc(/C(=N/O)c2csc(-c3ccccc3)n2)cc(OC)c1OC [compound 33, (Z)-(2-Phenylthiazol-4-yl)(3,4,5-trimethoxyphenyl)methanone oxime] | – | – | 150 to 153 °C | – | – | – | – | IC50 (B16-F1; B16-F1, 48 h, SRB, 48 h): 320 nM; IC50 (A375; Homo sapiens, A-375, 48 h, SRB, 48 h): 180 nM; IC50 [3]: 360 nM
12 | COc1cc(/C(=N\O)c2csc(-c3ccccc3)n2)cc(OC)c1OC [compound 34, (E)-(2-Phenylthiazol-4-yl)(3,4,5-trimethoxyphenyl)methanone oxime] | – | – | 176 to 177 °C | – | – | – | – | IC50 [3]: 10100 nM; IC50 (PC-3; 96 h): > 1000 nM; IC50 (LNCaP; 96 h): > 1000 nM; IC50 (PPC-1; 96 h): > 1000 nM; IC50 (DU 145; 96 h): > 1000 nM
13 | COc1cc(/C(=N/N)c2csc(-c3ccccc3)n2)cc(OC)c1OC [compound 35, (Z)-4-(Hydrazono(3,4,5-trimethoxyphenyl)methyl)-2-phenylthiazole] | – | – | 117 to 119 °C | – | – | – | – | IC50 [3]: 1900 nM
14 | COc1cc(/C(=N\N)c2csc(-c3ccccc3)n2)cc(OC)c1OC [compound 36, (E)-4-(Hydrazono(3,4,5-trimethoxyphenyl)methyl)-2-phenylthiazole] | – | – | 65 to 66 °C | – | – | – | – | IC50 [3]: 1000 nM

Further lines, with some results ahead:

Row | IC50 (B16-F1; B16-F1, SRB) | IC50 (A375; Homo sapiens, A-375, SRB) | melting point | IC50 (PC-3) | IC50 (LNCaP) | IC50 (PPC-1) | IC50 (DU 145) | Structure (SMILES) | other results
15 | 287 nM | 304 nM | – | 24 nM | 11 nM | 21 nM | 35 nM | COc1cc(C(=O)c2csc(-c3cccc(F)c3)n2)cc(OC)c1OC [8m, [2-(3-Fluorophenyl)-thiazol-4-yl](3,4,5-trimethoxyphenyl)-methanone] | IC50 (melanoma cells): 287 to 304 nM; IC50 [1]: 23 to 46 nM
16 | 53 nM | 59 nM | – | 30 nM | 15 nM | 19 nM | 52 nM | COc1cc(C(=O)c2csc(-c3ccc(C#N)cc3)n2)cc(OC)c1OC [8q, 4-[4-(3,4,5-Trimethoxybenzoyl)-thiazol-2-yl]-benzonitrile] | –
17 | 92 nM | 23 nM | – | 58 nM | 94 nM | 76 nM | 50 nM | COc1cc(C(=O)c2csc(-c3ccc(C(F)(F)F)cc3)n2)cc(OC)c1OC [8t, (2-(4-(Trifluoromethyl)-phenyl)-thiazol-4-yl)(3,4,5-trimethoxyphenyl)-methanone] | –
18 | 32 nM | 13 nM | – | 18 nM | 44 nM | 21 nM | 21 nM | COc1cc(C(=O)c2csc(-c3ccc(Br)cc3)n2)cc(OC)c1OC [8u, [2-(4-Bromophenyl)-thiazol-4-yl]-(3,4,5-trimethoxyphenyl)-methanone] | IC50 [1]: 18 to 44 nM
19 | 70 nM | – | – | 27 nM | 60 nM | 22 nM | 31 nM | CCc1ccc(-c2nc(C(=O)c3cc(OC)c(OC)c(OC)c3)cs2)cc1 [8v, [2-(4-Ethyl-phenyl)-thiazol-4-yl]-(3,4,5-trimethoxy-phenyl)-methanone] | IC50 [2]: 17 to 70 nM
20 | > 100000 nM | > 100000 nM | 178 to 180 °C | > 20000 nM | > 20000 nM | > 20000 nM | > 20000 nM | COc1cc(C(=O)c2csc(-c3ccncc3)n2)cc(OC)c1OC [8x, [2-(Pyridin-4-yl)-thiazol-4-yl]-(3,4,5-trimethoxyphenyl)-methanone] | –
21 | 2300 nM | 4100 nM | 190 to 191 °C | 2660 nM | 2370 nM | 1190 nM | 2810 nM | COc1cc(C(=O)c2csc(-c3ncccn3)n2)cc(OC)c1OC [8y, [2-(Pyrimidin-2-yl)-thiazol-4-yl]-(3,4,5-trimethoxyphenyl)-methanone] | IC50 [2]: 11800 to 41000 nM
22 | 4900 nM | 3470 nM | – | – | – | – | – | Cc1ccc(-c2nc(C(=O)c3ccc(F)cc3)cs2)cc1 [11-11] | IC50 (WM164): 4700 nM
23 | > 10000 nM | > 10000 nM | – | – | – | – | – | O=C(c1ccc(OC(F)(F)F)cc1)c1csc(-c2ccccc2)n1 [13-13] | IC50 (WM164): > 10000 nM
24 | > 10000 nM | > 10000 nM | – | – | – | – | – | COc1ccc(C(=O)n2ccnc2-c2ccc(F)cc2)cc1 [24-24] | IC50 (WM164): > 10000 nM
